Data reported in patent US12123048B2, “Fluorinated 4′-alkylumbelliferyl a-D-glucopyranosides, biological sterilization indicators including the same and methods of using the same” (3M INNOVATIVE PROPERTIES COMPANY, priority 2018, dated 2024).

Tested on: Geobacillus stearothermophilus spores (ATCC 7953)
Assay: Fluorescence measurements using enzyme substrates and Geobacillus stearothermophilus spores in LB broth
Format: cell-based
Settings: substrate 0.3 mg/mL, 5×10^6 spores, 60° C.
Protocol: Luria-Bertani (LB) broth was prepared by dissolving tryptone (10 g/L), yeast extract (5 g/L), and NaCl (5 g/L) in deionized water. In the examples, 6′-fluoro-4′-methylumbelliferyl α-D-glucopyranoside (0.3 mg/mL) or 5′-fluoro-4′-methylumbelliferyl α-D-glucopyranoside (0.3 mg/mL) was added to the broth. In the comparative examples, 4′-methylumbelliferyl α-D-glucopyranoside (MUG) (0.3 mg/mL) or 6′,8′-Difluoro-4′-methylumbelliferyl α-D-glucopyranoside (0.3 mg/mL) was added to the broth. The pH of the broth was adjusted to either pH 6, pH 7, pH 8, or pH 9 using 0.1 N hydrochloric acid or 1N sodium hydroxide solutions. The broth was passed through a 0.22 micron filter prior to use.
LB broth (pH 6) containing 6′-fluoro-4′-methylumbelliferyl α-D-glucopyranoside (0.3 mg/mL) (enzyme substrate of Example 1) was added to two wells (100 microliters per well) of a black 96-well microtiter plate with optically clear, flat bottom wells (NUNC #165301, Thermo Fisher Scientific, Waltham, MA). A 5 microliter aqueous suspension containing 5×10^6 Geobacillus stearothermophilus spores (ATCC 7953) was added to each well of the microtiter plate. Next, the contents of each well were mixed using a multiple aspiration/delivery sequence with the pipet. […] The top of the plate was covered with an optically clear sealing film (product #4311971, Applied Biosystems Corporation, Foster City, CA). The plate was warmed at 60° C. and shaken in a linear direction. Fluorescence readings (360 nm excitation/450 nm emission at 50% gain) were taken from the bottom of the plate. A reading was taken at an initial time point of 10 seconds and then at +1 minute intervals thereafter. A Synergy Neo2 fluorescence plate reader (BioTek Company, Winooski, VT) was used. In Table 1, the mean fluorescence values detected (RFU) at times of 10 seconds, +5 minutes, +10 minutes, and +30 minutes are reported. The mean fluorescence values detected for the control wells were 978 RFU at 10 seconds; 920 RFU at +5 minutes; 870 RFU at +10 minutes, and 746 RFU at +30 minutes.
(§1) The procedure of Example 3 was followed, with the exception that the LB broth (pH 6) containing 6′-fluoro-4′-methylumbelliferyl α-D-glucopyranoside (0.3 mg/mL) was replaced with LB broth (pH 6) containing 5′-fluoro-4′-methylumbelliferyl-α-D-glucopyranoside (0.3 mg/mL) (enzyme substrate of Example 2). In Table 1, the mean fluorescence values detected (RFU) at times of 10 seconds, +5 minutes, +10 minutes, and +30 minutes are reported. The mean fluorescence values detected for the control wells were 828 RFU at 10 seconds; 784 RFU at +5 minutes; 738 RFU at +10 minutes, and 622 RFU at +30 minutes.
as §1, with “4-methylumbelliferyl α-D-glucopyranoside” for “5′-fluoro-4′-methylumbelliferyl-α-D-glucopyranoside”, “(MUG).” for “(enzyme substrate of Example 2).”, “868” for “828”, “802” for “784”, “756” for “738”, “656” for “622”
The procedure of Example 3 was followed, with the exception that the LB broth (pH 6) containing 6′-fluoro-4′-methylumbelliferyl α-D-glucopyranoside (0.3 mg/mL) was replaced with LB broth (pH 6) containing 6′,8′-difluoro-4′-methylumbelliferyl α-D-glucopyranoside (0.3 mg/mL) (enzyme substrate of Comparative Example A). In Table 1, the mean fluorescence values detected (RFU) at times of 10 seconds, +5 minutes, +10 minutes, and +30 minutes are reported. The mean fluorescence values detected for the control wells were 1,768 RFU at 10 seconds; 1,750 RFU at +5 minutes; 1,743 RFU at +10 minutes, and 1,805 RFU at +30 minutes. […]

[1] = pH 6 LB broth, 360 nm excitation/450 nm emission

Compound	MEASURED FLUORESCENCE, RFU 10 sec [1] [RFU]	MEASURED FLUORESCENCE, RFU +5 min (pH 6 LB broth) [RFU]	MEASURED FLUORESCENCE, RFU +10 min (pH 6 LB broth) [RFU]	MEASURED FLUORESCENCE, RFU +30 min (pH 6 LB broth) [RFU]	MEASURED FLUORESCENCE, RFU 10 sec (pH 7 LB broth) [RFU]	MEASURED FLUORESCENCE, RFU +5 min (pH 7 LB broth) [RFU]	MEASURED FLUORESCENCE, RFU +10 min (pH 7 LB broth) [RFU]	MEASURED FLUORESCENCE, RFU +30 min (pH 7 LB broth) [RFU]	MEASURED FLUORESCENCE, RFU 10 sec (pH 8 LB broth) [RFU]	MEASURED FLUORESCENCE, RFU +5 min (pH 8 LB broth) [RFU]	MEASURED FLUORESCENCE, RFU +10 min (pH 8 LB broth) [RFU]	MEASURED FLUORESCENCE, RFU +30 min (pH 8 LB broth) [RFU]	MEASURED FLUORESCENCE, RFU 10 sec (pH 9 LB broth) [RFU]	MEASURED FLUORESCENCE, RFU +5 min (pH 9 LB broth) [RFU]	MEASURED FLUORESCENCE, RFU +10 min (pH 9 LB broth) [RFU]	MEASURED FLUORESCENCE, RFU +30 min (pH 9 LB broth) [RFU]
Cc1cc(=O)oc2c(F)c(O[C@H]3O[C@H](CO)[C@@H](O)[C@H](O)[C@H]3O)c(F)cc12 [Comparative Example A, 6′,8′-Difluoro-4′-methylumbelliferyl α-D-glucopyranoside]	29807	68823	85625	>100000	32795	67118	89943	>100000	20878	48312	77765	>100000	4119	12620	31290	77404
Cc1cc(=O)oc2cc(O[C@H]3O[C@H](CO)[C@@H](O)[C@H](O)[C@H]3O)c(F)cc12 [Example 1, 6′-Fluoro-4′-methylumbelliferyl α-D-glucopyranoside]	11764	30536	51188	82334	24718	54317	79851	>100000	11298	32225	61862	>100000	2823	8863	22809	77125
Cc1cc(=O)oc2cc(O[C@H]3O[C@H](CO)[C@@H](O)[C@H](O)[C@H]3O)cc(F)c12 [Example 2, 5′-Fluoro-4′-methylumbelliferyl α-D-glucopyranoside]	1663	3559	7048	20550	5842	15059	28596	58390	3928	11692	26273	66491	1116	3002	7983	43732
Cc1cc(=O)oc2cc(O[C@H]3O[C@H](CO)[C@@H](O)[C@H](O)[C@H]3O)ccc12 [MUG, 4′-methylumbelliferyl-α-D-glucopyranoside]	1590	3100	5607	15915	3298	7944	15511	41643	3450	9572	21171	64484	1193	3444	9258	48874
